# Results taken from patent publication US11492359B2, “Near-infrared nerve-sparing fluorophores” (OREGON HEALTH & SCIENCE UNIVERSITY, priority 2018, dated 2022).
# Assays:
# [1] = UV-Vis absorption and fluorescence spectroscopy of the Oxazine library; format: physicochemical; details: for Extinction coefficient: Beer's Law plots; for Quantum yield: relative, references Oxazine 1, Oxazine 170, Rhodamine 101
# Procedure, shortened: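 Absorbance measured at room temperature in 1-cm quartz cuvette, reference corrected; extinction coefficient from Beer's Law plots of absorbance vs concentration. Fluorescence spectra corrected for PMT response; relative quantum yields averaged over multiple measurements against Oxazine 1, Oxazine 170 and Rhodamine 101 references.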
# [2] = system: murine brachial plexus and sciatic nerves; assay: Nerve-specificity screening using direct/topical administration; format: in vivo, mouse; details: for nerve specificity (N/M contrast vs control group) via direct administration: 125 μM, imaged 30 minutes after staining; for N/M and N/A ratios vs unstained control animals: direct administration
# Experimental: All reagents were purchased from Sigma Aldrich, Fisher Scientific, TCI, or Ark Pharm. Unless otherwise indicated, all commercially available starting materials were used directly without further purification. Analytical thin layer chromatography (TLC) was performed on Millipore ready-to-use plates with silica gel 60 (F254, 32-63 μm). Flash chromatography was performed on Sorbent Technologies silica gel for column chromatography or on a Biotage Isolera Flash System using SNAP Ultra cartridges. High-resolution mass spectra (HRMS) were measured on a ThermoElectron LTQ-Orbitrap high resolution mass spectrometer with a dedicated Accela HPLC system, or an Agilent 6244 time-of-flight LCMS with diode array detector VL+. LCMS and Purity Characterization Mass-to-charge ratio and purity of the Oxazine compounds were characterized on an Agilent 6244 time-of-flight tandem liquid chromatography mass spectroscopy (LCMS) with diode array detector VL+. Sample (10 μL) was injected into a C18 column (Poroshell 120, 4.6×50 mm, 2.7 micron), and eluted with a solvent system of A (H2O, 0.1% FA) and B (MeCN, 01.% FA) at 0.4 mL/min, from A/B=90/10 to 5/95 over 10 min, maintained at A/B=5/95 for additional 5 min. Ions were detected in positive ion mode by setting the capillary voltage at 4 kV and gas temperature at 350° C. Purity was calculated through area under the curve analysis of the absorbance at 254 nm. UV-Vis Absorption and Fluorescence Spectroscopy. UV-Vis spectra were collected with a Cary 50 UV-Vis spectrophotometer at room temperature, using a 1-cm quartz cuvette. Fluorescence spectra were collected on a Cary Eclipse fluorescence spectrophotometer (Agilent Technologies). All absorbance spectra were reference corrected. Extinction coefficient was calculated from Beer's Law plots of absorbance versus concentration. Fluorescence spectra were corrected for the wavelength dependent response of the R928 photomultiplier tube using a manufacturer generated correction file. Relative quantum yields are reported as the average of multiple measurements using multiple references, including Oxazine 1, Oxazine 170, and Rhodamine 101. Physicochemical Property Calculation. Physicochemical partition coefficients (Log D) values at pH 7.4, number of hydrogen bond donors and acceptors, polar surface area, and the number of rotatable bonds were calculated using Marvin and JChem calculator plugins (ChemAxon, Budapest, Hungary). Nerve-Specificity Screening using Direct/Topical Administration Each compound was screened for its tissue-specificity using a previously published direct/topical administration strategy in murine brachial plexus and sciatic nerves.^1 Each compound from the Oxazine library was formulated in the previously utilized co-solvent formulation (10% DMSO, 5% Kolliphor, 65% serum and 20% phosphate buffered saline) at 125 μM. 100 μL of the formulated Oxazine were incubated on the exposed brachial plexus or sciatic nerve for 5 minutes. The fluorophore containing solution was removed and the area was irrigated with saline 18 times to remove any unbound fluorophore. Co-registered fluorescence and color images were collected of each stained area 30 minutes after Oxazine direct/topical administration using a custom built macroscopic imaging system with 620/60 nm excitation and 700/75 nm bandpass emission filters. Custom written MatLab code was used to analyze the tissue specific fluorescence where regions of interest were selected on the nerve, muscle and adipose tissue using the white light images. These regions of interest were then analyzed on the co-registered matched fluorescence images permitting assessment of the nerve to muscle and nerve to adipose ratios in blinded manner. […]
# [3] = system: murine brachial plexus and sciatic nerves; assay: Nerve-specificity screening using systemic administration; format: in vivo; details: for nerve specificity / nerve contrast (N/M vs control group) following systemic administration: IV, 200 nmol, 4 hours prior to imaging; for N/M and N/A ratios vs unstained control animals: systemic administration
# [4] = system: mouse brachial plexus nerves; assay: Nerve imaging at depth under muscle tissue; format: in vivo
# Experimental: Nerve imaging at depth studies using a model Oxazine derivative. Oxazine 4 and LGW01-08 were used to stain mouse brachial plexus nerves using both direct and systemic administration methods using the same dose and administration methods previously described. The ability to image the brachial plexus nerve at depth was assessed under varying thicknesses of mouse muscle tissue. Muscle tissue was resected from the peritoneal muscle layer and measured for thickness. One and two layers of resected peritoneal muscle tissue was placed over the stained nerves, providing one and two mm thick homogenous tissue through which the stained nerve tissue was imaged. The same muscle tissue was used to cover the stained nerves from both fluorophores with care taken to orient the muscle in the same way to ensure equivalent comparison. The imaging system configuration was changed to reflect the 700 nm channel in clinically relevant FGS systems (Tummers et al., Eur J Surg Oncol 40, 850-858 (2014); Troyan et al., Ann Surg Oncol 16, 2943-2952 (2009); Ashitate et al., The Journal of surgical research 176, 7-13 (2012); Verbeek et al., The Journal of urology 190, 574-579 (2013); Hillary et al., Langenbecks Arch Surg 403, 111-118 (2018); and Mery et al., Oncotarget 8, 109559-109574 (2017). For fluorescence excitation, the PhotoFluor II was filtered with a 650±22.5 nm bandpass excitation filter. The resulting fluorescence was collected with a 720±30 nm bandpass emission filter for image collection. Camera exposure times ranged from 0.025-4 s for fluorescence image collection.
# Image analysis of intraoperative nerve contrast. Custom written MatLab code was used to analyze the tissue specific fluorescence where regions of interest (ROIs) were selected on the nerve, muscle and adipose tissue using the white light images, but blinded to the fluorescence images. These ROIs were then analyzed on the co-registered, matched fluorescence images permitting assessment of the mean tissue intensities as well as the nerve to muscle (N/M) and nerve to adipose (N/A) ratios. Fluorescence intensity measurements were divided by the exposure time to obtain normalized intensity per second measurements. Mean nerve to background tissue ratios (N/M and N/A) were calculated for each Oxazine derivative. For nerve imaging at depth image analysis, fluorescent line profiles and 3-D intensity topographical plots were generated in ImageJ using the plot profile and surface plot functions, respectively. The line profiles were background and exposure time corrected by dividing by the exposure time of each image and subtracting the average intensity of background pixels from the entire line profile. […]
# swine peripheral nerves = assay: Swine nerve imaging on da Vinci Si surgical system; format: in vivo; details: for nerve contrast against key surgical tissue classes (adipose, muscle, vasculature, peritoneal): laparoscopic; for SBR of buried nerve tissues: underlying peritoneal tissue and several millimeters of mixed adipose and muscle tissues, semi-quantitative
# Source text: A custom-built laparoscopic imaging system also capable of real-time color and fluorescence imaging was used to acquire in vivo swine images and videos. The imaging system was integrated into the da Vinci Si surgical system (Intuitive Surgical, Sunnyvale, Calif.) and consisted of a Necsel Neon 5 W 640 nm laser (Necsel, Milpitas, Calif.) coupled to the da Vinci Si endoscope with a 642 nm StopLine single-notch blocking filter (Semrock, Rochester, N.Y.). The single-notch blocking filter was placed in the Si camera sterile adaptor between the rod lens endoscope and the Si camera head. Fluorescent signal acquisition occurred in the Si white light mode with the blocking filter removing the excitation light and the fluorescent signal detected primarily on the red, green, blue (RGB) red-Bayer elements of a modified Si endoscope camera head. Laser power at the endoscope tip measured 800 mW with the optical power loses occurring primarily at the laser fiber/light guide and the Si camera head/rod lens interfaces. Fluorescence and color videos were captured using the Si Vision side cart at an exposure time of 2 ms. Videos were recorded on a Panasonic HD-SDI recorder connected to the TilePro video out connections on the da Vinci Si Vision side cart. Video clips were edited in iMovie to crop their length and include text overlays. Screen captures of the in vivo video clips were collected and are presented as figures. Da Vinci Si imaging display algorithms apply non-linear gamma and color corrections to the collected video, and thus, while image quantification is possible to report what would be visible to surgeons intraoperatively, these values are only semi-quantitative and could vary from what is observed in a more controlled system.
# Swine nerve imaging studies of Oxazine derivatives. LGW01-08 and LGW05-75 were administered via IV injection at a body surface area scaled dose from mice for swine nerve imaging studies (0.34 mg/kg) (Nair & Jacob, J Basic Clin Pharm 7, 27-31 (2016) and Sharma & McNeill, Br J Pharmacol 157, 907-921 (2009)). Nerves running along the body wall in the peritoneal cavity buried beneath 1-3 mm of fascia and adipose tissue were imaged using the previously described fluorescence enabled laparoscopic imaging system docked to the da Vinci Si Surgical System. Nerve contrast was monitored immediately following injection and up to 6 hours after systemic administration. Dissection and resection of the identified nerve structures was performed using the da Vinci system, where the resected tissues were fixed in formalin. The fixed tissues were sent to the OHSU Histopathology Shared Resource for paraffin embedding, sectioning and subsequent gold standard H&E staining.
# Image analysis of intraoperative nerve contrast. Custom written MatLab code was used to analyze the tissue specific fluorescence where regions of interest (ROIs) were selected on the nerve, muscle and adipose tissue using the white light images, but blinded to the fluorescence images. These ROIs were then analyzed on the co-registered, matched fluorescence images permitting assessment of the mean tissue intensities as well as the nerve to muscle (N/M) and nerve to adipose (N/A) ratios. Fluorescence intensity measurements were divided by the exposure time to obtain normalized intensity per second measurements. Mean nerve to background tissue ratios (N/M and N/A) were calculated for each Oxazine derivative. For nerve imaging at depth image analysis, fluorescent line profiles and 3-D intensity topographical plots were generated in ImageJ using the plot profile and surface plot functions, respectively. The line profiles were background and exposure time corrected by dividing by the exposure time of each image and subtracting the average intensity of background pixels from the entire line profile. […] In addition, non-uniform tissue surfaces, variable endoscope-tissue positioning, and vignetting add further complications to resolving tissue-level SBRs.
# nerve and muscle tissue = assay: Ex vivo tissue staining nerve-specificity screening
# Source text: Oxazine derivative library nerve-specificity screening. All 64 Oxazine derivatives were screened for nerve specificity using a previously described ex vivo tissue staining assay (Gibbs, S. L., et al., PloS one 8, e73493 (2013)). Ex vivo nerve and muscle tissue fluorescence intensities varied, with many compounds showing minimal nerve or muscle tissue fluorescence above control autofluorescence following Oxazine derivative staining. […] All Oxazine derivatives were further screened for nerve-specificity in vivo using both direct and systemic administration strategies. The direct administration strategy enabled quantification of nerve-specificity and contrast following fluorophore contact with the nerves and surrounding tissues without the requirement of BNB penetration, providing the most similar comparison to ex vivo nerve-specificity screening. The systemic administration screening studies required not only nerve specificity, but also adequate biodistribution and BNB penetration to generate SBR for visualization.
Structure (SMILES),Max Abs [1] [nm],Max Em [1] [nm],Max Ex [1] [nm],Extinction coefficient [1] [M⁻¹ cm⁻¹],Quantum yield [1] [%],nerve specificity (N/M contrast vs control group) via direct administration [2],N/M and N/A ratios vs unstained control animals [2],nerve specificity / nerve contrast (N/M vs control group) following systemic administration [3],N/M and N/A ratios vs unstained control animals [3],"width of smallest nerve branches distinguished under muscle tissue ([4]; direct administration, under 1 mm of muscle tissue) [μm]","thickness of muscle tissue under which nerve tissue could be identified ([4]; following both systemic and direct administration, 700 nm channel filters)","time post-injection at which signal approached background levels (swine peripheral nerves; swine, IV 0.34 mg/kg) [h]","nerve contrast against key surgical tissue classes (adipose, muscle, vasculature, peritoneal) (swine peripheral nerves; swine)",SBR of buried nerve tissues (swine peripheral nerves; swine),faster time to positive N/A and N/M fluorescence compared to current visible-emissive agents (swine peripheral nerves; systemic administration),time post-injection to nerve signal / strong nerve contrast (swine peripheral nerves; systemic administration) [min],"time after administration with strong nerve SBR (swine peripheral nerves; swine, IV 0.34 mg/kg) [h]","time required for sufficient background tissue clearance (swine peripheral nerves; swine, IV 0.34 mg/kg) [h]",ex vivo nerve specificity (N/M SBR vs unstained control group) (nerve and muscle tissue)
"CCNc1cc2oc3cc(=[N+](CC)CC)ccc-3nc2cc1C [LGW01-08, N-ethyl-N-(7-(ethylamino)-8-methyl-3H-phenoxazin-3-ylidene)ethanaminium]",638,659,640,78650,5.68,high nerve specificity,significantly higher N/M and N/A ratios than unstained control animals,high nerve specificity,significantly higher N/M and N/A ratios than unstained control animals,~200,up to 2 mm,~4,positive nerve contrast,~1.5,2-6 fold,20,,,
"CC/N=c1/cc2oc3cc4c(cc3nc-2cc1C)OCCN4CC [LGW05-75, (Z)—N-(4-ethyl-9-methyl-3,4-dihydro-[1,4]oxazino[2,3-b]phenoxazin-8(2H)-ylidene)ethanaminium]",638,659,640,57360,31.70,high nerve specificity,significantly higher N/M and N/A ratios than unstained control animals,high nerve specificity,significantly higher N/M and N/A ratios than unstained control animals,,,,positive nerve contrast,~1.5,,,> 4.5,~1.5,
"CN(C)c1ccc2nc3ccc(=[N+](C)C)cc-3oc2c1 [LGW01-39, N-(7-(dimethylamino)-3H-phenoxazin-3-ylidene)-N-methylmethanaminium]",648,667,650,76144,9.56,,,,,,,,,,,,,,significantly higher N/M SBR compared to the unstained control group
